Reference: patent publication US20070073056A1, “4-Substituted Pyrazoline Compounds, their Preparation and Use as Medicaments” (LABORATORIOS DEL DR. ESTEVE, S.A., priority 2005, published 2007)
Structures can show the parent of a compound that is named as a salt. Where two headings read alike, the source gives them in different places.

Key:
CB1-receptor [1] = target: CB1-receptor (UniProt P20272); experiment: binding of the pyrazoline compounds to CB1-receptors (Pharmacological Methods, Part I); design: other: 10^−7 M; other: 10^−8 M; species or system human or rat
Protocol: (§1) I. In-vitro Determination of Affinity to CB1/CB2-Receptors
(§2) The in-vitro determination of the affinity of the inventive 4-substituted pyrazoline compounds to CB1/CB2-Rezeptors is carried out as described in the publication of Ruth A. Ross, Heather C. Brockie et al., “Agonist-inverse agonist characterisation at CB1 and CB2 cannabinoid receptors of L-759633, L759656 and AM630”, British Journal of Pharmacology, 126, 665-672, (1999), whereby the transfected human CB1 and CB2 receptors of Receptor Biology, Inc. are used. The radioligand used for both receptors is [^3H]-CP55940. The respective parts of the description is hereby incorporated by reference and forms part of the present disclosure.
(§3) Rat Cerebellum CB1 Binding
(§4) Binding affinity to CB1 receptor was evaluated according to a modification of the method described by Govaerts et al., Eur J Pharmac Sci 23, 233-243 (2004). The respective parts of the description is hereby incorporated by reference and forms part of the present disclosure.
(§5) Briefly, cerebellum from male wistar rats (250-300 g) were carefully dissected on ice and homogenates were prepared with Potter-Helveheim in a cold 50 mM Tris-HCl solution containing 5 mM MgCl2, 1 mM EDTA and 0.25 M sucrose, pH 7.4. The suspension was centrifuged at […] for 5 minutes. The supernatants were collected and centrifuged 50,000×g for 15 minutes. The resulting pellets were then resuspended in Tris-HCl buffer without sucrose, homogenized and incubated for 15 min at 37° C. in an orbital shaker bath and centrifuged again at 50,000×g for 15 min. Pellets were weighted, resuspended in Tris-HCl buffer without sucrose, homogenized with Ultraturrax at 13,500 rpm for 3×5 seconds and alicuoted in 0.9 ml volumes in Eppendorf tubes. Alicuotes were centrifuged at 20,800×g for 5 minutes, supernatants discarded and pellets were frozen at −80° C. until use. Total protein concentration was determined using the Bio-Rad Lowry method based kit. Competitive binding experiments were performed in presence of 1 nM [^3H]-CP 55,940 in siliconized glass tubes containing 100 μg protein/tube resuspended in 1 ml final volume of 50 mM Tris-HCl, 5 mM MgCl2, 1 mM EDTA, 0.5% (w/v) bovine serum albumin, pH 7.4. Compounds were present at various concentrations and the non specific binding was determined in the presence of 10 μM HU-210. After 1 hour incubation at 30° C., the suspension was rapidly filtered through 0.5% PEI pre-treated GF/B fiber filters on a 96-well harvester and washed 3 times with 3 ml ice-cold binding buffer without bovine serum albumin. Radioactivity on filters was measured with Wallac Winspectral 1414 counter by liquid scintillation in 6 ml Ecoscint H (National Diagnostics, U.K.). Assays were made in triplicates.
(§6) Binding data were analyzed by non-linear regression with the software GraphPad Prism Version 3.03.
(§7) The binding of the pyrazoline compounds of general formula I to CB1-receptors was determined according to the method described in the section Pharmacological Methods, Part I.

CB1-receptor [2] = target: CB1-receptor (UniProt P20272); experiment: as above; design: IC50; species or system human or rat
Protocol: as §1, §2, §3, §4, §5, §6, §7

[3] = radioligand [3H]-CP55940, read-out: IC50

| SMILES | Inhibition (CB1-receptor [1]; 10^−7 M) [%] | Inhibition (CB1-receptor [1]; 10^−8 M, in %) | IC50 (CB1-receptor [2]; [3]) [nM] | IC50 (CB1-receptor [2]; radioligand [3H]-CP55940, hydrochloride, read-out: IC50) [nM] | IC50 (CB1-receptor [2]; radioligand [3H]-CP55940) [nM] |
| --- | --- | --- | --- | --- | --- |
| C[C@H]1C(C(=O)NN2CC3CCCC3C2)=NN(c2ccc(Cl)cc2Cl)[C@H]1c1ccc(Cl)cc1 (relative stereo) [Example 13, cis-5-(4-Chloro-phenyl)-1-(2,4-dichloro-phenyl)-4-methyl-4,5-dihydro-1H-pyrazole-3-carboxylic acid (hexahydro-cyclopenta[c]pyrrol-2-yl)-amide] | 70.6 | 27.6 | 25.1 | – | – |
| C[C@H]1C(C(=O)NN2CCCCCC2)=NN(c2ccc(Cl)cc2Cl)[C@H]1c1ccc(Cl)cc1.Cl (relative stereo) [Example 96, cis-5-(4-Chlorophenyl)-1-(2,4-dichlorophenyl)-4-methyl-4,5-dihydro-1H-pyrazole-3-carboxylic acid azepan-1-ylamide hydrochloride] | 80 | 65 | 7.9 | – | – |
| CC1CCCC(C)N1NC(=O)C1=NN(c2ccc(Cl)cc2Cl)[C@H](c2ccc(Cl)cc2)[C@@H]1C (relative stereo) [Example 103, cis-5-(4-chlorophenyl)-1-(2,4-dichlorophenyl)-N-(2,6-dimethylpiperidin-1-yl)-4-methyl-4,5-dihydro-1H-pyrazole-3-carboxamide] | 55.3 | 19.5 | 60.6 | – | – |
| CC1Cc2ccccc2N1NC(=O)C1=NN(c2ccc(Cl)cc2Cl)[C@@H](c2ccc(Cl)cc2)[C@H]1C (relative stereo) [Example 113, cis-5-(4-chlorophenyl)-1-(2,4-dichlorophenyl)-4-methyl-N-(2-methylindolin-1-yl)-4,5-dihydro-1H-pyrazole-3-carboxamide] | 55.5 | 24.7 | 128 | – | – |
| C[C@@H]1C(C(=O)NC2CCCCCCC2)=NN(c2ccc(Cl)cc2Cl)[C@@H]1c1ccc(Cl)cc1 (relative stereo) [Example 119, cis-5-(4-chlorophenyl)-N-cyclooctyl-1-(2,4-dichlorophenyl)-4-methyl-4,5-dihydro-1H-pyrazole-3-carboxamide] | 73.7 | 19.5 | 51.4 | – | – |
| C[C@H]1C(C(=O)NC2CCCCCC2)=NN(c2ccc(Cl)cc2Cl)[C@H]1c1ccc(Cl)cc1 (relative stereo) [Example 123, cis-5-(4-chlorophenyl)-N-cycloheptyl-1-(2,4-dichlorophenyl)-4-methyl-4,5-dihydro-1H-pyrazole-3-carboxamide] | 90.8 | 39.9 | 31.9 | – | – |
| C[C@H]1C(C(=O)NN2CCCCCC2)=NN(c2ccc(Cl)cc2Cl)[C@H]1c1ccc(Br)cc1.Cl (relative stereo) [Example 207, cis-N-(azepan-1-yl)-5-(4-bromophenyl)-1-(2,4-dichlorophenyl)-4-methyl-4,5-dihydro-1H-pyrazole-3-carboxamide hydrochloride] | 73 | 48.3 | 71 | – | – |
| C[C@H]1C(C(=O)NC2CCCCCC2)=NN(c2ccc(Cl)cc2Cl)[C@H]1c1ccc(Br)cc1 (relative stereo) [Example 211, cis-5-(4-bromophenyl)-N-cycloheptyl-1-(2,4-dichlorophenyl)-4-methyl-4,5-dihydro-1H-pyrazole-3-carboxamide] | 69.8 | 37.2 | 30 | – | – |
| C[C@H]1C(C(=O)NN2CC3CCCC3C2)=NN(c2ccc(Cl)cc2Cl)[C@H]1c1ccc(Br)cc1 (relative stereo) [Example 213, cis-5-(4-bromophenyl)-1-(2,4-dichlorophenyl)-N-(hexahydrocyclopenta[c]pyrrol-2(1H)-yl)-4-methyl-4,5-dihydro-1H-pyrazole-3-carboxamide hydrochloride] | – | – | 53 | – | – |
| C[C@H]1C(C(=O)NC2CCCCCC2)=NN(c2ccc(Cl)cc2Cl)[C@H]1c1ccc(F)cc1 (relative stereo) [Example 231, cis-N-cycloheptyl-1-(2,4-dichlorophenyl)-5-(4-fluorophenyl)-4-methyl-4,5-dihydro-1H-pyrazole-3-carboxamide] | 50.5 | 23.2 | 112 | – | – |
| COc1ccc([C@@H]2[C@H](C)C(C(=O)NN3CCCCC3)=NN2c2ccc(Cl)cc2Cl)cc1.Cl (relative stereo) [Example 265, cis-1-(2,4-dichlorophenyl)-5-(4-methoxyphenyl)-4-methyl-N-(piperidin-1-yl)-4,5-dihydro-1H-pyrazole-3-carboxamide hydrochloride] | 62 | 29.2 | – | 60 | – |
| COc1ccc([C@H]2[C@@H](C)C(C(=O)NN3CCCCCC3)=NN2c2ccc(Cl)cc2Cl)cc1.Cl (relative stereo) [Example 271, cis-N-(azepan-1-yl)-1-(2,4-dichlorophenyl)-5-(4-methoxyphenyl)-4-methyl-4,5-dihydro-1H-pyrazole-3-carboxamide hydrochloride] | 73.5 | 30.6 | 61 | – | – |
| COc1ccc([C@H]2[C@@H](C)C(C(=O)NC3CCCCCC3)=NN2c2ccc(Cl)cc2Cl)cc1 (relative stereo) [Example 275, cis-N-cycloheptyl-1-(2,4-dichlorophenyl)-5-(4-methoxyphenyl)-4-methyl-4,5-dihydro-1H-pyrazole-3-carboxamide] | 69.1 | 26.1 | – | – | 66 |
| COc1ccc([C@H]2[C@@H](C)C(C(=O)NN3CC4CCCC4C3)=NN2c2ccc(Cl)cc2Cl)cc1.Cl (relative stereo) [Example 277, cis-1-(2,4-dichlorophenyl)-N-(hexahydrocyclopenta[c]pyrrol-2(1H)-yl)-5-(4-methoxyphenyl)-4-methyl-4,5-dihydro-1H-pyrazole-3-carboxamide hydrochloride] | 61.6 | 17.9 | 20 | – | – |
| C[C@@H]1C(C(=O)NN2CCCCC2)=NN(c2ccc(Cl)cc2Cl)[C@H]1c1ccc(Cl)s1 (relative stereo) [Example 426, trans-5-(5-chlorothiophen-2-yl)-1-(2,4-dichlorophenyl)-4-methyl-N-(piperidin-1-yl)-4,5-dihydro-1H-pyrazole-3-carboxamide hydrochloride] | – | – | 280 | – | – |
| C[C@@H]1C(C(=O)NN2CCCCC2)=NN(c2ccc(Cl)cc2Cl)[C@@H]1c1ccc(Cl)s1 (relative stereo) [Example 427, cis-5-(5-chlorothiophen-2-yl)-1-(2,4-dichlorophenyl)-4-methyl-N-(piperidin-1-yl)-4,5-dihydro-1H-pyrazole-3-carboxamide hydrochloride] | – | – | 160 | – | – |
| C[C@@H]1C(C(=O)NN2CCCCC2)=NN(c2ccc(Cl)cc2Cl)[C@H]1c1ccc(Cl)cc1 (relative stereo) [Example 431, trans-5-(4-chlorophenyl)-1-(2,4-dichlorophenyl)-4-methyl-N-(piperidin-1-yl)-4,5-dihydro-1H-pyrazole-3-carboxamide] | – | – | 79 | – | – |
| C[C@@H]1C(C(=O)NN2CCCCC2)=NN(c2ccc(Cl)cc2Cl)[C@@H]1c1ccc(Cl)cc1 (relative stereo) [Example 434, cis-5-(4-chlorophenyl)-1-(2,4-dichlorophenyl)-4-methyl-N-(piperidin-1-yl)-4,5-dihydro-1H-pyrazole-3-carboxamide] | – | – | 89 | – | – |
